# Legend:
# HeLa cells [1] = assay: HeLa cell viability by trypan blue dye exclusion; format: cell-based
# Protocol: Since extracellular calcium concentration can influence triptolide binding Applicants sought to determine if the presence of calcium influences the rate of triptolide-mediated apoptosis. To first establish the growth rate of HeLa in media±calcium, cell counts were performed over a 72 hour time course. Although calcium-free media caused cells to detach more easily, the overall growth rates were similar where cell doubling occurred every 24 hours on average (FIG. 3B). For triptolide experiments, cells were initially equilibrated in medium±calcium for 16 hours before the addition of 100 nM triptolide. Cell death was assessed by trypan blue dye exclusion at 24, 48, and 72 hours post drug treatment. In the presence of calcium-containing medium, triptolide induced at least 50% cell death by 24 hours with this trend continuing through later time points (FIG. 3C).
# Applicants' results have implicated reversible binding of triptolide to a potential binding protein or complex that can be regulated by calcium. To understand if triptolide function is further separable between cell death and NFκB inhibition, Applicants examined the effect of concentration on these two endpoints. HeLa cells were cultured in the presence of 0, 10, 25, 50, or 100 nM of triptolide and separately assessed for cell death or the ability to suppress NFκB transactivation promoted by TNF-α. Following 24-48 hours of culture, viable cells were recovered and counted. Following 24 hours, triptolide concentrations from 25-100 nM caused greater than 50% of the cells to undergo cell death as assessed by detachment, clumping and the failure to exclude trypan blue dye. […] This is consistent with previous studies showing that low doses of triptolide cause cell cycle arrest rather than apoptosis (Kiviharju, et al., 2002, Clin Cancer Res 8, 2666-2674).
# (§1) Based upon Applicants' studies examining the concentration dependent effect of triptolide on the two measured biological endpoints, cell death and transcriptional repression, Applicants wanted to determine how modulating triptolide's structure may also discriminate between the two pathways. For cell viability assays, HeLa cells were incubated with 0, 0.1, 1, or 10 μM of each analog or triptolide for 24 hours and then counted using trypan blue dye exclusion. […] NFκB transcriptional inhibition was measured using the κB-luciferase assay as previously described following 5 hours of incubation with each analog (0-10 μM) and TNF-α addition.
# HeLa cells were incubated in DMEM or SMEM (Gibco) media+10% FBS and maintained at 37° C. in 5% CO2 for all experiments. HeLa cell viability was assessed by trypan blue dye exclusion, as well as by morphological examination (non-viable cells were rounded and detached from culture plate).
# NFκB transactivation = assay: κB-luciferase reporter assay (TNF-α induced); format: cell-based
# Protocol: Having established that triptolide induced cell death is dependent upon free calcium concentration, Applicants next determined if this was also a requirement for the inhibition of NFκB transcription. HeLa cells were transiently transfected with the κB-luciferase reporter construct for 8 hours before being washed and then cultured in the presence or absence of calcium containing medium for 16 hours. Triptolide (100 nM) was pre-incubated with cells for 1 hour before addition of 15 ng/ml of TNF-α for 4 hours.
# As an additional experiment, transcriptional activity was also assessed by site-directed calcium buffering. HeLa cells were co-transfected with the κB-luciferase plasmid as well as one of the following constructs: GFP empty vector, NES-PV-GFP, or NLS-PV-GFP and proper GFP localization was confirmed. Cells were grown in the presence of calcium for 24 hours before the addition of 100 nM triptolide and 15 ng/ml TNF-α.
# NFκB transactivation was examined using the κb-luciferase reporter construct. HeLa cells were transiently transfected and pre-treated with 0-100 nM triptolide for one hour prior to TNF-α addition. Cells were assessed for NFκB driven luciferase expression after an additional five hours of incubation, at which time TNF-α had induced transcriptional activity by approximately 15-fold in control cells. […] The results thus far support a divergence of triptolide-mediated functions: the pathway regulating growth arrest/death is more sensitive to triptolide and calcium than the mechanism leading to transcriptional repression of NFκB.
# as §1
# A triple κB promoter-Luciferase reporter construct was a gift of Sankar Ghosh (Yale University). HeLa cells were plated at a density of 2×10^5 in 12 well plates and transfected with 100 ng of the κB-Luciferase plasmid plus Lipofectamine 2000 (Invitrogen) for 24 hours before the addition of 100 nM triptolide for one hour and 15 ng/ml of recombinant (human) TNF-α (Roche) for an additional five hours. The transfection efficiency of HeLa was determined to be 80-90%, and all samples were normalized to protein concentration. Luciferase assays were performed using the Firefly luciferase kit as per manufacturer's protocol (Promega) and results obtained on the Wallac Victor2 1420 Multilabel Counter (Perkin Elmer).
# HeLa cells [2] = assay: HeLa cell viability by trypan blue dye exclusion; format: cell-based; settings: 10 μM (so in the source), 48 hours
# pregnant C57B1/6 mice = assay: Toxicity dose finding in pregnant mice; format: in vivo; settings: i.p.
# Protocol: Triptolide has been previously studied in rodent models of tumor regression (Tengchaisri, et al., 1998, Cancer Lett 133, 169-175; Yang, et al., 2003, Mol Cancer Ther 2, 65-72), but it had not yet been tested in a system utilizing pregnant females. To first establish a potential therapeutic versus lethal concentration of drug delivery, pregnant C57B1/6 mice were treated with incremental concentrations of triptolide between 0.01-0.15 mg/kg/day i.p. injections. Toxicity was assessed as determined by resorption of all embryos or the preponderance of a large percentage of stillborns. With reference to these criteria, triptolide toxicity was determined to be most prominent at concentrations of 0.1 mg/kg/day or greater. […] Another experimental parameter involved the timing of the start of triptolide injections, since polycystin-2 has been implicated in left-right axis formation in the developing embryo at approximately E7.75 (McGrath, et al., 2003, Cell 114, 61-73; Pennekamp, et al., 2002, Curr Biol 12, 938-943). Applicants therefore chose E10.5 as the start of triptolide injections, in order to allow for a normal polycystin-2 mediated patterning event and still leave sufficient time to act on cyst formation during kidney organogenesis.
smiles,measurement,setting,value
"CC(C)[C@]12O[C@H]1[C@@H]1O[C@]13[C@]1(O[C@H]1C[C@H]1C4=C(CC[C@@]13C)C(=O)OC4)[C@@H]2O [triptolide, Triptolide]",cell growth,HeLa cells [1]; 10 nM,efficient at arresting cell growth
same,cell death,"HeLa cells [1]; 0.1 μM, 24 hours, analog study",60%
same,cell death,"HeLa cells [1]; 0.1 μM, 24 hours, analog study, listed as Triptolide",greater than 50%
same,cell death,"HeLa cells [1]; 100 nM, calcium-containing medium, by 24 hours",at least 50%
same,cell death at the higher concentrations,"HeLa cells [1]; 1 or 10 μM versus 0.1 μM, 24 hours",no significant increase
same,cell death,"HeLa cells [1]; 25-100 nM, 24 hours",greater than 50%
same,cell death,"HeLa cells [1]; 25-100 nM, 48 hours",nearly all cells treated within this concentration range of triptolide died
same,minimal incubation time required for commitment to apoptosis,HeLa cells [1]; HeLa cells,three to four
same,TNF-α driven transcriptional activity of NFκB,"NFκB transactivation; 10 nM, 6 hours",did not inhibit
same,TNF-α driven transcriptional activity of NFκB,"NFκB transactivation; 25 nM, 6 hours",did not inhibit
same,suppression of NFκB transcriptional activity,"NFκB transactivation; 50 nM, 6 hours",20%
same,inhibition at 0.1 µM,"NFκB transactivation; 0.1 μM, 5 hours with TNF-α, analog study",> 60%
same,inhibition of NFκB transcriptional activity,"NFκB transactivation; 100 nM, 6 hours, average",60%
same,NFκB transactivation,"NFκB transactivation; 100 nM, GFP vector, NES-PV-GFP or NLS-PV-GFP co-transfected",retained the ability to suppress NFκB transactivation in all experimental conditions
same,TNF-α induced NFκB transactivation,"NFκB transactivation; 100 nM, presence and absence of calcium",effectively inhibited
same,NFκB transcriptional activity at higher concentration,"NFκB transactivation; 1 or 10 μM, 5 hours",attenuated further
same,cell proliferation and cell death,HeLa cells [2],inhibited cell proliferation but did not induce cell death
same,"dose at which toxicity was most prominent (resorption of embryos, stillborns)",pregnant C57B1/6 mice,≥ 0.1 mg/kg/day

# From US20080188449A1, “Treatment of Conditions Caused By Calcium Abnormalities” (priority 2004, published 2008)
